# Reference: patent US11174253B2, “Compound and pharmaceutical composition containing the same” (ALPHALA CO., LTD., priority 2017, dated 2021)
# What was measured:
# Format in all cases: cell-based
# [1] = system: NCI-H460 human lung cancer cell line; assay: MTS cell viability assay (NCI-60 methodology), GI50/LC50, NCI-H460; details: 48 h, NCI-H460 cells, 2 days incubation with compound
# Method: (§1) The number of treated cells was determined by GE InCell 2200 system, and treated cells were stained with Hoechst 33342 which can reveal the remained nucleus in culture plate. The proportion of survival cells then were calculated with the ratio of treated/non-treated cells. The growth inhibition/cytotoxic effect of selected compounds were evaluated by the following protocol of NCI-60 screening platform. The human tumor cell lines are plating on a 96 well plate in a fixed density 24 hr prior compound treatment. Compounds with multiple concentrations are then added into each well for further 48 hr incubation. Cell viability is assessed by MTS method and the potency of compound is represented by GI50 and LC50 calculated by MTS result.
# (§2) The cell viability measurement is based on the NCI-60 screening methodology (Nat. Rev. Cancer 6, 813-823, 2006). Briefly, cells are inoculated into 96-well plates at the optimal plating density. After 24 h, one of the two plates for each cell line is processed to determine a time zero cell viability (Tz) by MTS assay (Promega). Compounds are added over a 2-fold serial dilution to provide a total five drug concentrations plus DMSO control. Plates are incubated for a further 2 days, then measured cell viability by MTS assay [control growth (C) and test growth in the presence of drug at the five concentration levels (Ti)]. Growth inhibition of 50% (GI50) is calculated from [(Ti−Tz)/(C−Tz)]×100=50, which is the drug concentration resulting in a 50% reduction of control cells during the drug incubation. The LC50 is calculated from [(Ti−Tz)/Tz]×100=−50, which is the drug concentration resulting in a 50% reduction at the end of the drug treatment as compared to that at the beginning.
# (§3) Herein, Hep3B refers to hepatocellular carcinoma cell line, SW480 refers to colon adenocarcinoma cell line, and NCI-H460 refers to human lung cancer cell line.
# [2] = system: Hep3B hepatocellular carcinoma cell line; assay: MTS cell viability assay (NCI-60 methodology), GI50/LC50, Hep3B; details: Homo sapiens, 48 h, Hep3B cells, 2 days incubation with compound
# Method: as §1, §2, §3
# [3] = system: SW480 colon adenocarcinoma cell line; assay: MTS cell viability assay (NCI-60 methodology), GI50/LC50, SW480; details: Homo sapiens, 48 h, SW480 cells, 2 days incubation with compound
# Method: as §1, §2, §3
# [4] = system: hepatocellular carcinoma cell line Hep3B; assay: Growth inhibition of Hep3B cells, 48 hr treatment, Hoechst 33342 nucleus count (GE InCell 2200); details: Homo sapiens
# Method in brief: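 Compound exposure lasted 48 hr at 37° C, 5% CO2. Surviving nuclei were counted after Hoechst 33342 staining, and survival was expressed as the treated/non-treated cell number ratio, including the ratio at 10 μM compound.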
# [5] = Table 5, ratio of number of tumor cells treated with 10 μM compound to non-treated cells
# [6] = Table 1, ratio of number of tumor cells treated with 10 μM compound to non-treated cells
# [7] = Table 6, ratio of number of tumor cells treated with 10 μM compound to non-treated cells
SMILES,GI50 [1],GI50 [2],LC50 [2],GI50 [3],other results
"CCCOc1ccc(-c2nc(NC(=O)c3ccc([N+](=O)[O-])s3)sc2Oc2cccc(F)c2)cc1 [Compound 5-24, N-(5-(3-fluorophenoxy)-4-(4-propoxyphenyl)thiazol-2-yl)-5-nitrothiophene-2-carboxamide]",1570 nM,950 nM,2070 nM,1140 nM,"LC50 (concentration giving 50% net cell loss versus time zero, NCI-60 definition) [1]: 3790 nM; LC50 (NCI-60 lethal concentration, 50% net cell loss vs time zero) [3]: 4230 nM; viability at 10 µM [4, 5]: 28%"
"CCCOc1ccc(-c2nc(NC(=O)c3ccc([N+](=O)[O-])s3)sc2Oc2ccc(OC(F)(F)F)cc2)cc1 [Compound 5-8, 5-nitro-N-(4-(4-propoxyphenyl)-5-(4-(trifluoromethoxy)phenoxy)thiazol-2-yl)thiophene-2-carboxamide]",3010 nM,3430 nM,–,–,"LC50 (concentration giving 50% net cell loss versus time zero, NCI-60 definition) [1]: 4660 nM; viability at 10 µM [4, 5]: 24%"
"Cc1ccc(-c2nc(NC(=O)c3ccc([N+](=O)[O-])s3)sc2-c2ccc(Br)cc2)cc1 [Compound 6-2, N-(5-(4-bromophenyl)-4-(p-tolyl)thiazol-2-yl)-5-nitrothiophene-2-carboxamide]",–,1270 nM,1940 nM,970 nM,"LC50 (NCI-60 lethal concentration, 50% net cell loss vs time zero) [3]: 2720 nM"
"CCOc1ccc(-c2nnc(NC(=O)Cc3ccc4nc(N)sc4c3)s2)c(OCCN(C)C)c1 [Compound 1-29, 2-(2-aminobenzo[d]thiazol-6-yl)-N-(5-(2-(2-(dimethylamino)ethoxy)-4-ethoxyphenyl)-1,3,4-thiadiazol-2-yl)acetamide]",5200 nM,200 nM,1100 nM,3340 nM,–
"CCCOc1ccccc1-c1nnc(NC(=O)Cc2ccc3nc(N)sc3c2)s1 [Compound 1-10, 2-(2-aminobenzo[d]thiazol-6-yl)-N-(5-(2-propoxyphenyl)-1,3,4-thiadiazol-2-yl)acetamide]",–,170 nM,550 nM,900 nM,"LC50 (NCI-60 lethal concentration, 50% net cell loss vs time zero) [3]: 5170 nM; viability at 10 µM [4, 6]: 61%"
"CCCCOc1ccccc1-c1nnc(NC(=O)Cc2ccc3nc(N)sc3c2)s1 [Compound 1-20, 2-(2-aminobenzo[d]thiazol-6-yl)-N-(5-(2-butoxyphenyl)-1,3,4-thiadiazol-2-yl)acetamide]",–,210 nM,630 nM,1150 nM,"viability at 10 µM [4, 6]: 81%"
"CCOc1cc(OCC)c(-c2nnc(NC(=O)Cc3ccc4nc(N)sc4c3)s2)cn1 [Compound 1-35, 2-(2-aminobenzo[d]thiazol-6-yl)-N-(5-(4,6-diethoxypyridin-3-yl)-1,3,4-thiadiazol-2-yl)acetamide]",1420 nM,550 nM,3680 nM,–,"viability at 10 µM [4, 6]: 42%"
"CC(C)Oc1ccccc1-c1nnc(NC(=O)Cc2ccc3nc(N)sc3c2)s1 [Compound 1-15, 2-(2-aminobenzo[d]thiazol-6-yl)-N-(5-(2-isopropoxyphenyl)-1,3,4-thiadiazol-2-yl)acetamide]",–,170 nM,500 nM,620 nM,"viability at 10 µM [4, 6]: 56%"
"O=C(Nc1nc(-c2ccc(Br)cc2)c(Oc2ccc(OC(F)(F)F)cc2)s1)c1ccc([N+](=O)[O-])s1 [Compound 5-18, N-(4-(4-bromophenyl)-5-(4-(trifluoromethoxy)phenoxy)thiazol-2-yl)-5-nitrothiophene-2-carboxamide]",6400 nM,3090 nM,4770 nM,2520 nM,"LC50 (NCI-60 lethal concentration, 50% net cell loss vs time zero) [3]: 4750 nM"
"Nc1nc2ccc(CC(=O)Nc3nnc(-c4ccc(Br)cc4)s3)cc2s1 [Compound 1-7, 2-(2-aminobenzo[d]thiazol-6-yl)-N-(5-(4-bromophenyl)-1,3,4-thiadiazol-2-yl)acetamide]",–,3170 nM,9400 nM,7700 nM,–
"CCOc1ccc(-c2nc(NC(=O)Cc3ccc4nc(N)sc4c3)sc2-c2ccc(F)cc2)cc1 [Compound 3-9, 2-(2-aminobenzo[d]thiazol-6-yl)-N-(4-(4-ethoxyphenyl)-5-(4-fluorophenyl)thiazol-2-yl)acetamide]",2390 nM,2270 nM,–,8950 nM,–
"Cc1ccc(-c2nc(NC(=O)Cc3ccc4nc(N)sc4c3)sc2-c2ccc(F)cc2)cc1 [Compound 3-4, 2-(2-aminobenzo[d]thiazol-6-yl)-N-(5-(4-fluorophenyl)-4-(p-tolyl)thiazol-2-yl)acetamide]",3020 nM,2070 nM,–,–,–
"CCOc1ccc(-c2nnc(NC(=O)Cc3ccc4nc(N)sc4c3)s2)c(OCCOC)c1 [Compound 1-32, 2-(2-aminobenzo[d]thiazol-6-yl)-N-(5-(4-ethoxy-2-(2-methoxyethoxy)phenyl)-1,3,4-thiadiazol-2-yl)acetamide]",140 nM,170 nM,540 nM,230 nM,"LC50 (concentration giving 50% net cell loss versus time zero, NCI-60 definition) [1]: 600 nM; LC50 (NCI-60 lethal concentration, 50% net cell loss vs time zero) [3]: 690 nM"
"CCCOc1ccc(-c2nc(NC(=O)c3ccc([N+](=O)[O-])s3)sc2Oc2ccccc2)cc1 [Compound 5-9, 5-nitro-N-(5-phenoxy-4-(4-propoxyphenyl)thiazol-2-yl)thiophene-2-carboxamide]",1110 nM,2430 nM,–,–,"LC50 (concentration giving 50% net cell loss versus time zero, NCI-60 definition) [1]: 2860 nM; viability at 10 µM [4, 5]: 32%"
"CCCOc1ccc(-c2nnc(NC(=O)Cc3ccc4nc(N)sc4c3)s2)cc1 [Compound 1-17, 2-(2-aminobenzo[d]thiazol-6-yl)-N-(5-(4-propoxyphenyl)-1,3,4-thiadiazol-2-yl)acetamide]",–,600 nM,890 nM,1810 nM,"viability at 10 µM [4, 6]: 82%"
"CCC(CC)Oc1ccc(-c2nnc(NC(=O)Cc3ccc4nc(N)sc4c3)s2)cc1 [Compound 1-16, 2-(2-aminobenzo[d]thiazol-6-yl)-N-(5-(4-(pentan-3-yloxy)phenyl)-1,3,4-thiadiazol-2-yl)acetamide]",–,2830 nM,4340 nM,7260 nM,"viability at 10 µM [4, 6]: 84%"
"CC(C)Oc1ccc(-c2nc(NC(=O)c3ccc([N+](=O)[O-])s3)sc2Oc2ccccc2)cc1 [Compound 5-10, N-(4-(4-isopropoxyphenyl)-5-phenoxythiazol-2-yl)-5-nitrothiophene-2-carboxamide]",880 nM,2530 nM,–,–,"LC50 (concentration giving 50% net cell loss versus time zero, NCI-60 definition) [1]: 5310 nM; viability at 10 µM [4, 5]: 29%"
"Cc1ccc(-c2nc(NC(=O)Cc3ccc4nc(N)sc4c3)sc2-c2ccc(Br)cc2)cc1 [Compound 3-3, 2-(2-aminobenzo[d]thiazol-6-yl)-N-(5-(4-bromophenyl)-4-(p-tolyl)thiazol-2-yl)acetamide]",–,1140 nM,–,7970 nM,"viability at 10 µM ([4]; Table 3, ratio of number of tumor cells treated with 10 μM compound to non-treated cells): 71%"
"Cc1cc(Oc2sc(NC(=O)c3ccc([N+](=O)[O-])s3)nc2-c2ccc(F)cc2)cc(C)c1Br [Compound 5-100, N-(5-(4-bromo-3,5-dimethylphenoxy)-4-(4-fluorophenyl)thiazol-2-yl)-5-nitrothiophene-2-carboxamide]",–,–,–,–,"viability at 10 µM [4, 5]: 30%"
"CCOc1cc(-c2sc(NC(=O)c3ccc([N+](=O)[O-])s3)nc2-c2ccc(C)cc2)ccc1Br [Compound 6-20, N-(5-(4-bromo-3-ethoxyphenyl)-4-(p-tolyl)thiazol-2-yl)-5-nitrothiophene-2-carboxamide]",–,–,–,–,"viability at 10 µM [4, 7]: 45%"
"O=C(Nc1nc(-c2ccc(Br)cc2)c(-c2ccccc2)s1)c1ccc([N+](=O)[O-])s1 [Compound 6-9, N-(4-(4-bromophenyl)-5-phenylthiazol-2-yl)-5-nitrothiophene-2-carboxamide]",–,–,–,–,"viability at 10 µM [4, 7]: 71%"
"O=C(Nc1nc(-c2cccc([N+](=O)[O-])c2)c(Br)s1)c1ccc([N+](=O)[O-])s1 [Compound 6-13, N-(5-bromo-4-(3-nitrophenyl)thiazol-2-yl)-5-nitrothiophene-2-carboxamide]",–,–,–,–,"viability at 10 µM [4, 7]: 81%"
"CCCOc1ccc(-c2nc(NC(=O)c3ccc([N+](=O)[O-])s3)sc2Oc2ccccc2OCC)cc1 [Compound 5-21, N-(5-(2-ethoxyphenoxy)-4-(4-propoxyphenyl)thiazol-2-yl)-5-nitrothiophene-2-carboxamide]",–,–,–,–,"viability at 10 µM [4, 5]: 28%"
